Laboratory results reported in PubChem BioAssay AID1259407 (Chemical Carcinogenesis Research Information System (CCRIS), 2018).
The source made the active and inactive calls. How the calls were made is not given here.

Test system: CCRIS mutagenicity, Ames/micronucleus/aberration tests
Assay: CCRIS mutagenicity studies
Conditions: Test System: AMES SALMONELLA TYPHIMURIUM, Method: STANDARD PLATE

Measured: mutagenic call

CC(=O)Nc1ccc(OC(=O)c2ccccc2OC(C)=O)cc1
inactive: Strain/Indicator: TA97, Metabolic Activation: NONE inactive; negative | Strain/Indicator: TA97, Metabolic Activation: RAT, LIVER, S-9, AROCLOR 1254 inactive; negative | Strain/Indicator: TA98, Metabolic Activation: NONE inactive; negative | Strain/Indicator: TA98, Metabolic Activation: RAT, LIVER, S-9, AROCLOR 1254 inactive; negative | Strain/Indicator: TA100, Metabolic Activation: NONE inactive; negative | Strain/Indicator: TA100, Metabolic Activation: RAT, LIVER, S-9, AROCLOR 1254 inactive; negative | Strain/Indicator: TA1535, Metabolic Activation: NONE inactive; negative | Strain/Indicator: TA1535, Metabolic Activation: RAT, LIVER, S-9, AROCLOR 1254 inactive; negative | Strain/Indicator: TA1537, Metabolic Activation: NONE inactive; negative | Strain/Indicator: TA1537, Metabolic Activation: RAT, LIVER, S-9, AROCLOR 1254 inactive; negative | Strain/Indicator: TA1538, Metabolic Activation: NONE inactive; negative | Strain/Indicator: TA1538, Metabolic Activation: RAT, LIVER, S-9, AROCLOR 1254 inactive; negative
